# Experimental data reported in ChEMBL document CHEMBL4699583 (J Med Chem, 2020).
# Active and inactive are the calls of the source. The rule behind the calls is not given here.
# Tests used:
# [1] = target: Androgen receptor (Homo sapiens) (UniProt P10275); assay: Antagonist activity at human androgen receptor at 2 uM by cell based nuclear translocation assay
# [2] = target: Histamine H2 receptor (Homo sapiens) (UniProt P25021); assay: Antagonist activity at human histamine H2 receptor at 2 uM by cell based cAMP assay; assay type: functional
# [3] = target: T1, GABA-A receptor; alpha-1/beta-2/gamma-2 (Homo sapiens) (UniProt P14867+P47870+P18507); assay: Activation of human GABA alpha1beta2gamma2 receptor at 2 uM by cell based assay
# [4] = target: D(2) dopamine receptor (Homo sapiens) (UniProt P14416); assay: Antagonist activity at human dopamine D2S receptor at 2 uM by cell based cAMP assay; assay type: functional
# [5] = target: Alpha-1A adrenergic receptor (Homo sapiens) (UniProt P35348); assay: Antagonist activity at human ADRA1A at 2 uM by cell based calcium flux assay; assay type: functional
# [6] = target: Muscarinic acetylcholine receptor M3 (Homo sapiens) (UniProt P20309); assay: Agonist activity at human muscarinic acetylcholine receptor M3 at 2 uM by cell based calcium flux assay; assay type: functional
# [7] = target: Androgen receptor (Homo sapiens) (UniProt P10275); assay: Agonist activity at human androgen receptor at 2 uM by cell based nuclear translocation assay
# [8] = target: Adenosine receptor A2a (Homo sapiens) (UniProt P29274); assay: Antagonist activity at human adenosine A2A at 2 uM by cell based calcium flux assay; assay type: functional
# [9] = target: D(1A) dopamine receptor (Homo sapiens) (UniProt P21728); assay: Antagonist activity at human dopamine D1 receptor at 2 uM by cell based cAMP assay; assay type: functional
# [10] = target: 5-hydroxytryptamine receptor 1B (Homo sapiens) (UniProt P28222); assay: Agonist activity at human 5HT1B receptor at 2 uM by cell based cAMP assay; assay type: functional
# [11] = target: Beta-2 adrenergic receptor (Homo sapiens) (UniProt P07550); assay: Agonist activity at human beta-2 adrenergic receptor at 2 uM by cell based cAMP assay; assay type: functional
# [12] = target: Prostaglandin G/H synthase 2 (Homo sapiens) (UniProt P35354); assay: Inhibition of human COX2 at 2 uM
# [13] = target: T2, Voltage-gated potassium channel, IKs; KCNQ1(Kv7.1)/KCNE1(MinK) (Homo sapiens, UniProt P51787+P15382); assay: Inhibition of human KvLQT1/mink at 2 uM by thallium flux assay; assay type: protein-complex assay
# [14] = target: Vasopressin V1a receptor (Homo sapiens) (UniProt P37288); assay: Antagonist activity at human vasopressin V1a receptor at 2 uM by cell based calcium flux assay; assay type: functional
# [15] = target: Glucocorticoid receptor (Homo sapiens) (UniProt P04150); assay: Agonist activity at human glucocorticoid receptor at 2 uM by cell based assay
# [16] = target: Mu-type opioid receptor (Homo sapiens) (UniProt P35372); assay: Antagonist activity at human mu opioid receptor at 2 uM by cell based cAMP assay; assay type: functional
# [17] = target: 5-hydroxytryptamine receptor 1A (Homo sapiens) (UniProt P08908); assay: Agonist activity at human 5HT1A receptor at 2 uM by cell based cAMP assay; assay type: functional
# [18] = target: Histamine H2 receptor (Homo sapiens) (UniProt P25021); assay: Agonist activity at human histamine H2 receptor at 2 uM by cell based cAMP assay; assay type: functional
# [19] = target: Alpha-2A adrenergic receptor (Homo sapiens) (UniProt P08913); assay: Antagonist activity at human alpha-2A adrenergic receptor at 2 uM by cell based cAMP assay; assay type: functional
# [20] = target: T1, GABA-A receptor; alpha-1/beta-2/gamma-2 (Homo sapiens); assay: Inactivation of human GABA alpha1beta2gamma2 receptor at 2 uM by cell based assay
# [21] = target: Adenosine receptor A2a (Homo sapiens) (UniProt P29274); assay: Agonist activity at human adenosine A2A receptor at 2 uM by cell based calcium flux assay; assay type: functional
# [22] = target: Neuronal acetylcholine receptor; alpha4/beta2 (Homo sapiens) (UniProt P17787+P43681); assay: Activation of human alpha4beta2 nACHR at 2 uM by cell based calcium flux assay
# [23] = target: cGMP-inhibited 3',5'-cyclic phosphodiesterase 3A (Homo sapiens) (UniProt Q14432); assay: Inhibition of human PDE3A at 2 uM
# [24] = target: Sodium-dependent noradrenaline transporter (Homo sapiens) (UniProt P23975); assay: Inhibition of human norepinephrine transporter at 2 uM by cell based assay
# [25] = target: Rho-associated protein kinase 1 (Homo sapiens) (UniProt Q13464); assay: Inhibition of human ROCK1 at 2 uM
# [26] = Drug uptake in C57B6/J mouse brain at 10 mg/kg, ip administered as single dose measured after 60 to 360 mins by UPLC/MS TQD analysis; assay type: ADME, organism-based; details: in vivo, time 60-360 min
# [27] = species on record: Homo sapiens; assay: Inhibition of human 5HT3A channel at 2 uM by cell based calcium flux assay
# [28] = target: Cannabinoid receptor 1 (Homo sapiens) (UniProt P21554); assay: Antagonist activity at human cannabinoid receptor 1 at 2 uM by cell based cAMP assay; assay type: functional
# [29] = target: Cannabinoid receptor 1 (Homo sapiens) (UniProt P21554); assay: Agonist activity at human cannabinoid receptor 1 at 2 uM by cell based cAMP assay; assay type: functional
# [30] = target: Voltage-dependent L-type calcium channel subunit alpha-1C (Homo sapiens, UniProt Q13936); assay: Inhibition of human L-type calcium channel Cav1.2 at 2 uM by cell based assay
# [31] = target: 5-hydroxytryptamine receptor 2B (Homo sapiens) (UniProt P41595); assay: Agonist activity at human 5HT2B receptor at 2 uM by cell based calcium flux assay; assay type: functional
# [32] = target: T2, Voltage-gated potassium channel, IKs; KCNQ1(Kv7.1)/KCNE1(MinK); assay: Activation of human KvLQT1/mink at 2 uM by thallium flux assay; assay type: protein-complex assay
# [33] = target: Delta-type opioid receptor (Homo sapiens) (UniProt P41143); assay: Agonist activity at human delta opioid receptor at 2 uM by cell based cAMP assay; assay type: functional
# [34] = species on record: Homo sapiens; assay: Activation of human 5HT3A channel at 2 uM by cell based calcium flux assay
# [35] = target: Muscarinic acetylcholine receptor M1 (Homo sapiens) (UniProt P11229); assay: Antagonist activity at human muscarinic acetylcholine receptor M1 at 2 uM by cell based calcium flux assay; assay type: functional
# [36] = target: Tyrosine-protein kinase Lck (Homo sapiens) (UniProt P06239); assay: Inhibition of human LCK at 2 uM
# [37] = Clearance in C57B6/J mouse at 10 mg/kg, ip administered as single dose by UPLC/MS TQD analysis; assay type: ADME, organism-based; details: in vivo
# [38] = target: DNA topoisomerase 2-alpha (Homo sapiens, UniProt P11388); assay: Poison activity at human topoisomerase 2alpha assessed as DNA cleavage by measuring linear DNA formation using supercoiled pBR322 DNA as substrate at 5 to 200 uM measured after 6 mins by agarose gel electrophoresis method; details: 0.1 h, dose 5-200 µM
# [39] = target: Alpha-1A adrenergic receptor (Homo sapiens) (UniProt P35348); assay: Agonist activity at human ADRA1A at 2 uM by cell based calcium flux assay; assay type: functional
# [40] = target: 3',5'-cyclic-AMP phosphodiesterase 4D (Homo sapiens) (UniProt Q08499); assay: Inhibition of human PDE4D2 at 2 uM
# [41] = target: Muscarinic acetylcholine receptor M1 (Homo sapiens) (UniProt P11229); assay: Agonist activity at human muscarinic acetylcholine receptor M1 at 2 uM by cell based calcium flux assay; assay type: functional
# [42] = target: Cholecystokinin receptor type A (Homo sapiens) (UniProt P32238); assay: Agonist activity at human cholecystokinin typeA receptor at 2 uM by cell based calcium flux assay; assay type: functional
# [43] = target: D(2) dopamine receptor (Homo sapiens) (UniProt P14416); assay: Agonist activity at human dopamine D2S receptor at 2 uM by cell based cAMP assay; assay type: functional
# T2 sequence (P51787 whole entry): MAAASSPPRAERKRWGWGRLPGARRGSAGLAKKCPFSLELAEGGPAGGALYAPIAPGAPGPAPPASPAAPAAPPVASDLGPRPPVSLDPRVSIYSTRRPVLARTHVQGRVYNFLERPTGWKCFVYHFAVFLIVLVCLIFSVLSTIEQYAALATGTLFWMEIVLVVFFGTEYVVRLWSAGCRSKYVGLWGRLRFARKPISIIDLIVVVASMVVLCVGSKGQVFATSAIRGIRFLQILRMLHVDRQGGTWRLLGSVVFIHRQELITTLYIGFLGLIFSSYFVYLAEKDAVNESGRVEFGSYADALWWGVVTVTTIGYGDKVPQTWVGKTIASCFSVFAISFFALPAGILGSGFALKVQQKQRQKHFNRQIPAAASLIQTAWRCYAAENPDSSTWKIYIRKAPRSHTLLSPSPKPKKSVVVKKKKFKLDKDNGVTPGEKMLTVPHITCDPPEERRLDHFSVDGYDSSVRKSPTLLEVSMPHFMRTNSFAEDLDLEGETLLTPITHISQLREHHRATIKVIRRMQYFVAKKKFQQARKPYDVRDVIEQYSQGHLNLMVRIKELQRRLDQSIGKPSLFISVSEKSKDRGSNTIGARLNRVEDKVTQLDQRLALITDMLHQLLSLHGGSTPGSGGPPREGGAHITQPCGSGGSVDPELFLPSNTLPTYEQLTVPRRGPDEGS
# Adenosine receptor A2a (Homo sapiens), sequence (P29274 whole entry): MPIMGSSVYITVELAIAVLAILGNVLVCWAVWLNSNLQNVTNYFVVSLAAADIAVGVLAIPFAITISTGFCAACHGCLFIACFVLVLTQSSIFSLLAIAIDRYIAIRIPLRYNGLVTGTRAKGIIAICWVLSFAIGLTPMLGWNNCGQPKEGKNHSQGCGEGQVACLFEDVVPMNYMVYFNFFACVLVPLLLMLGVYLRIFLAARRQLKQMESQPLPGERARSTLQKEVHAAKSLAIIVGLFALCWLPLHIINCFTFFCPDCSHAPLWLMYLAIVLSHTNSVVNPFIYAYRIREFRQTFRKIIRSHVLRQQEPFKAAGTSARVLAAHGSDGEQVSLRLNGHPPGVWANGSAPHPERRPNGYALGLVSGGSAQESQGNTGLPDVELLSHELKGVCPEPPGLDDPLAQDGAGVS
# Alpha-1A adrenergic receptor (Homo sapiens), sequence (P35348 whole entry): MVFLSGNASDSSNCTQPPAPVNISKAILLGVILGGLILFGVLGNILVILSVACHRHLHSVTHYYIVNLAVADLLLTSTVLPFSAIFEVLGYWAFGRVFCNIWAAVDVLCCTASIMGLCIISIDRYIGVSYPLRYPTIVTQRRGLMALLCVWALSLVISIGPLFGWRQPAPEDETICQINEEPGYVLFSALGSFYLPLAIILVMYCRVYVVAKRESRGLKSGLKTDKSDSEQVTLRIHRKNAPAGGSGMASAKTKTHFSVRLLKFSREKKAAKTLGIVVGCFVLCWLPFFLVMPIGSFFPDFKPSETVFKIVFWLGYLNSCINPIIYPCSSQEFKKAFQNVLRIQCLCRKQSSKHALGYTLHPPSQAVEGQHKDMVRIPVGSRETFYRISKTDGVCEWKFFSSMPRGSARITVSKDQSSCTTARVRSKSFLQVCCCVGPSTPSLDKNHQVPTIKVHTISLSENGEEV
# Histamine H2 receptor (Homo sapiens), sequence (P25021 whole entry): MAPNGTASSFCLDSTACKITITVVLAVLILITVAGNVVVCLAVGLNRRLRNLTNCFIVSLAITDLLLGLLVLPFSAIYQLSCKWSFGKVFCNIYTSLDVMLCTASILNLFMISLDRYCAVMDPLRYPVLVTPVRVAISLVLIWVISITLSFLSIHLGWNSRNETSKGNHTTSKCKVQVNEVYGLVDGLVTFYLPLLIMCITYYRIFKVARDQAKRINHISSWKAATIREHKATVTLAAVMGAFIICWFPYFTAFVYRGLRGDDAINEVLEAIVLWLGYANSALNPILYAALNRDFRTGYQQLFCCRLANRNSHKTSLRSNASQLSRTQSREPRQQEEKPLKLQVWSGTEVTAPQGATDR
# Androgen receptor (Homo sapiens), sequence (P10275 whole entry): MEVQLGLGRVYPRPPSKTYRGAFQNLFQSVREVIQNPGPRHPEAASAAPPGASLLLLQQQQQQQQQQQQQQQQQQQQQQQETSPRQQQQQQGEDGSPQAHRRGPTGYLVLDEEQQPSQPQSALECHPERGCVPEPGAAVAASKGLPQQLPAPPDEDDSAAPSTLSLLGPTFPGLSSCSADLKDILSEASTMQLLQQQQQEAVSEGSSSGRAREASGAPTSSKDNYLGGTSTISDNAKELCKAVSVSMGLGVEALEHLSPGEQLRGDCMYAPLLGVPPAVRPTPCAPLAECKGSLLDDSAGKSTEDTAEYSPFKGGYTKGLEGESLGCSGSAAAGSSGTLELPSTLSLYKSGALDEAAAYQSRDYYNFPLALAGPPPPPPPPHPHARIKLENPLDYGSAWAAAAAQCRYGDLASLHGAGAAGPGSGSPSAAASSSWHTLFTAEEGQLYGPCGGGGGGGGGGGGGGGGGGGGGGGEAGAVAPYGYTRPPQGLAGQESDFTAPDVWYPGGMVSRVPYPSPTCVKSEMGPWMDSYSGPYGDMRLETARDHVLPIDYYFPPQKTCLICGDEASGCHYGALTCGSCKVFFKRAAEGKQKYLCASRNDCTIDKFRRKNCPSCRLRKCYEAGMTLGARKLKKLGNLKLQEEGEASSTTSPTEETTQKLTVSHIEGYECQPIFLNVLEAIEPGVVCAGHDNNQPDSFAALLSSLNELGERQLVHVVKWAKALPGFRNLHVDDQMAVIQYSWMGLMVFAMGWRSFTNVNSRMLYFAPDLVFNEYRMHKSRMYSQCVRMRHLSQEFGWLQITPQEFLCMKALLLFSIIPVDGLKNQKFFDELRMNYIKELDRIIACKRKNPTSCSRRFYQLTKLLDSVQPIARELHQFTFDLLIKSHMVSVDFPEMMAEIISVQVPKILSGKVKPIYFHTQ
# Cannabinoid receptor 1 (Homo sapiens), sequence (P21554 whole entry): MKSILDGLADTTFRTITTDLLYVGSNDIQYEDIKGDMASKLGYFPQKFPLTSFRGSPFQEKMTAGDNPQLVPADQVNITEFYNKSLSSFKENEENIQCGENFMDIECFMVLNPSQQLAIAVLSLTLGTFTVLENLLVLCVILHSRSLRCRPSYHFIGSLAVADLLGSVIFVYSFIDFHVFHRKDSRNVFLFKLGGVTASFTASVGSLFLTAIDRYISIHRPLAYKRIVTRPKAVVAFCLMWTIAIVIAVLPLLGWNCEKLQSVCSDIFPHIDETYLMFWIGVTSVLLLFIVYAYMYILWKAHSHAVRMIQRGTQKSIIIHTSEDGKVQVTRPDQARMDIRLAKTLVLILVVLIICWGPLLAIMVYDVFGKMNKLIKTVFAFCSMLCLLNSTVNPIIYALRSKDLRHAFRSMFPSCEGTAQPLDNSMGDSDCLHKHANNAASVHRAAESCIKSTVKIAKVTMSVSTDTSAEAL
# D(2) dopamine receptor (Homo sapiens), sequence (P14416 whole entry): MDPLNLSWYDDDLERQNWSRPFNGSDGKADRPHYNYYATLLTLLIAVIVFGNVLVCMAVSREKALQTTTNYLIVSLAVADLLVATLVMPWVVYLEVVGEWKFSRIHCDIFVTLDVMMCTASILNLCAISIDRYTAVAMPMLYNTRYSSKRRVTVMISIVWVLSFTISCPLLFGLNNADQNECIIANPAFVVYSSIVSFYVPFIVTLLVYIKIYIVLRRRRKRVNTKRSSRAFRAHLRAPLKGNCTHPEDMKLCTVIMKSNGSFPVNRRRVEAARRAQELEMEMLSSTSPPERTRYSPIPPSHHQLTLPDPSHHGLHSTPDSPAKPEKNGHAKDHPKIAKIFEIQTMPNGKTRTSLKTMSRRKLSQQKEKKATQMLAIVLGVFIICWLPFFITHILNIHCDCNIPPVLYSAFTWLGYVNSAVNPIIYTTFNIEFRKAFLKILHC
# Muscarinic acetylcholine receptor M1 (Homo sapiens), sequence (P11229 whole entry): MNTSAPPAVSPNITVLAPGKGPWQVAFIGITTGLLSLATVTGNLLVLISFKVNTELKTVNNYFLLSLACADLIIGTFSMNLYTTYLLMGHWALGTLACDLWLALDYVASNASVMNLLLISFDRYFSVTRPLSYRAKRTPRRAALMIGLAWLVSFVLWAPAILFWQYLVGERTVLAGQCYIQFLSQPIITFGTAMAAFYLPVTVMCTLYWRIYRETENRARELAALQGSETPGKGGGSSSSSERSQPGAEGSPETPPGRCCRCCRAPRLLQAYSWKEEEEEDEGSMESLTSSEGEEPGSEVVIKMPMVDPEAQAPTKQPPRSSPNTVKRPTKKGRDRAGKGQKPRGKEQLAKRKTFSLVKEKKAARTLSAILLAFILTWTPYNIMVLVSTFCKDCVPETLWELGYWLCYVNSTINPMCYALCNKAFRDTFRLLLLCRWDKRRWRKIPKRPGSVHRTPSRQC
# Muscarinic acetylcholine receptor M3 (Homo sapiens), sequence (P20309 whole entry, looked up): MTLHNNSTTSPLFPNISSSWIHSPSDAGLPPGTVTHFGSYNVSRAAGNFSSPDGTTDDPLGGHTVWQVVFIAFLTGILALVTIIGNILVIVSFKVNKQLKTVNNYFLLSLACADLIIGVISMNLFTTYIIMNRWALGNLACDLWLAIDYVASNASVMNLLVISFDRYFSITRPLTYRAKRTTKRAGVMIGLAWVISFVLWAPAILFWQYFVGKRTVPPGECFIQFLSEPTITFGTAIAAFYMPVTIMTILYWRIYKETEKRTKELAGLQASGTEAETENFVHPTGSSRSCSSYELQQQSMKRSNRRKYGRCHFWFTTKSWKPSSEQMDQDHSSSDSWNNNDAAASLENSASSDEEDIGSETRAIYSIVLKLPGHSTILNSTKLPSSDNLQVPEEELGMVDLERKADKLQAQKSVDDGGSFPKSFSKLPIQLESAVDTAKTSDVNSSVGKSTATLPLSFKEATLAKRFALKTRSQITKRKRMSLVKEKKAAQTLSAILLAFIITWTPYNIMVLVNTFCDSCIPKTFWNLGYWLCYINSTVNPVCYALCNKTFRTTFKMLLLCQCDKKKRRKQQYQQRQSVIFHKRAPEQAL
smiles,measurement,setting,value
CN(C)c1ccc(Nc2nc(-c3ccncc3)nc3c2CC(N)CC3)cc1 (stereo not drawn),Activity,[1],inactive
same,Activity,[2],inactive
same,Activity,[3],inactive
same,Activity,[4],inactive
same,Activity,[5],inactive
same,Activity,[6],inactive
same,Activity,[7],inactive
same,Activity,[8],inactive
same,Activity,[9],inactive
same,Activity,[10],inactive
same,Activity,[11],inactive
same,inhibition,[12],inactive
same,inhibition (INH),[13],Not Active
same,Activity,[14],inactive
same,Activity,[15],inactive
same,Activity,[16],inactive
same,Activity,[17],inactive
same,Activity,[18],inactive
same,Activity,[19],inactive
same,Activity,[20],inactive
same,Activity,[21],inactive
same,Activity,[22],inactive
same,inhibition,[23],inactive
same,inhibition,[24],inactive
same,inhibition,[25],inactive
same,Drug uptake,[26],Active
same,inhibition,[27],inactive
same,Activity,[28],inactive
same,Activity,[29],inactive
same,inhibition (INH),[30],Not Active
same,Activity,[31],inactive
same,Activity,[32],Not Active
same,Activity,[33],inactive
same,Activity,[34],inactive
same,Activity,[35],inactive
same,inhibition,[36],inactive
same,CL/F,[37],116 mL/min
same,Activity,[38],Not Active
same,Activity,[39],inactive
same,inhibition,[40],inactive
same,Activity,[41],inactive
same,Activity,[42],inactive
same,Activity,[43],inactive
